Measurements as given in US12599133B2, “Use of trifluenfuronate for prevention and treatment of agricultural pest insects and mites” (SHANDONG UNITED PESTICIDE INDUSTRY CO., LTD., priority 2020, dated 2026).
Values after ≈ are worked out from the molar mass of the structure shown. Where two headings read alike, the source gives them in different places.

Assays:
Diamondback moth egg = assay: Egg hatchability inhibition, leaf-immersing method; format: in vivo, Plutella xylostella (Linnaeus); conditions: Plutella xylostella, read-out: Hatchability inhibition
Description: (§1) Diamondback moth egg: The trial was carried out using a leaf-immersing method. A mother solution of the technical material with a mass concentration of 1 wt % was prepared with acetone, and diluted with deionized water comprising 0.1 wt % Tween 80 to trial concentrations for later use. 1.2% agar was poured into a Petri dish with a diameter of 9 cm and cooled for later use. Two-leaf one-core radish seedlings were placed in the Petri dish when adult diamondback moths were at the great oviposition phase. After 1 day, the […] seedlings were taken out. Radish seedlings with 20-30 eggs in it were selected and immersed in the agent liquid for 10 s and then taken out, and the radish seedlings were placed in a Petri dish and moisturized. Each treatment was repeated 3 times. A 0.1 wt % aqueous solution of Tween 80 was used to set up a blank control, and the blank control was placed in an insect-raising chamber at 25° C. After larvae of the blank control group hatched, the trial results were checked, and the hatchability was calculated.

Maize armyworm egg = assay: Egg hatchability inhibition, leaf-immersing method; format: in vivo, Mythimna separate (Walker); conditions: read-out: Hatchability inhibition
Description: as §1, with “Maize armyworm egg: The” for “Diamondback moth egg: The”, “Two-leaf one-core corn seedlings were” for “Two-leaf one-core radish seedlings were”, “when adult maize armyworms were at” for “when adult diamondback moths were at”, “taken out. Corn seedlings with” for “taken out. Radish seedlings with”, “and the corn seedlings were” for “and the radish seedlings were”

[1] = tested on: Tetranychus cinnabarinus Adult female mite; assay: Oviposition inhibitory activity determination trial; format: in vivo; conditions: 144 h, read-out: 6-day oviposition inhibition rate; for inhibition at 1 µg/mL: trial concentration 1 mg/L; for inhibition at 5 µg/mL: trial concentration 5 mg/L
Description: (§2) Oviposition inhibitory activity determination trial: A mother solution of the technical material with a mass concentration of 1 wt % was prepared with acetone for later use, and diluted with deionized water comprising 0.1 wt % Tween 80 to a series of trial concentrations. Fresh leaves of cowpea seedlings were selected and cut into round leaf disks with a diameter of about 5.0 cm. The leaf disks were placed in a plastic Petri dish with filter paper and degreased cotton spread in it. 5 mg/L and 10 mg/L treatment agents were applied to the back of the leaves with cotton swabs. An aqueous solution with the same solvent proportion was used as a control agent. After the agent liquid was naturally evaporated under indoor conditions, about 20 female adult mites aged 3-5 days were inoculated onto each leaf. Each treatment was repeated 5 times, about 100 mites were treated The mites were kept in the same conditions, and observed under a binocular dissecting microscope every 24 h over 6 consecutive days, and the number of laid eggs was recorded for each treatment. After the trial ended, the oviposition inhibition rate was calculated for each treatment.

[2] = tested on: Tetranychus urticae Adult female mite; assay: as above; format: in vivo; conditions: 144 h, read-out: 6-day oviposition inhibition rate; for inhibition at 1 µg/mL: trial concentration 1 mg/L; for inhibition at 5 µg/mL: trial concentration 5 mg/L
Description: as §2

[3] = tested on: Tetranychus viennensis Adult female mite; assay: as above; format: in vivo; conditions: 144 h, read-out: 6-day oviposition inhibition rate; for inhibition at 1 µg/mL: trial concentration 1 mg/L; for inhibition at 5 µg/mL: trial concentration 5 mg/L
Description: as §2

[4] = tested on: Panonychus citri Adult female mite; assay: as above; format: in vivo; conditions: 144 h, read-out: 6-day oviposition inhibition rate; for inhibition at 1 µg/mL: trial concentration 1 mg/L; for inhibition at 5 µg/mL: trial concentration 5 mg/L
Description: as §2

[5] = tested on: Tetranychus cinnabarinus egg; assay: Mite egg hatching inhibitory activity (toxicity to mite eggs), leaf-immersing method; format: in vivo
Description: (§3) Mite egg hatching inhibitory activity determination trial: The trial was carried out using a leaf-immersing method. A mother solution of the technical material with a mass concentration of 1 wt % was prepared with acetone for later use, and diluted with deionized water comprising 0.1 wt % Tween 80 to a series of trial concentrations. A 1.2% aqueous agar was poured into a Petri dish with a diameter of 9 cm and cooled for later use. Twenty adult mites were selected and inoculated onto pepper leaves. After 2 days, the adult mites were removed, and the number of mite eggs is counted. The leaves with eggs were immersed in the prepared agent liquid for 10 s and then taken out. The leaves were placed in a Petri dish and moisturized. Each treatment was repeated 3 times. A 0.1 wt % aqueous solution of Tween 80 was used to set up a blank control. These treatments were placed in a biochemical incubator at 24±1° C. After mite eggs of the blank control group hatched, the trial results were checked, and the hatchability rate was calculated.

[6] = tested on: Tetranychus viennensis egg; assay: as above; format: in vivo
Description: as §3

Tetranychus urticae egg = assay: as above; format: in vivo
Description: as §3

Panonychus citri egg = assay: as above; format: in vivo
Description: as §3

[7] = tested on: Tetranychus cinnabarinus eggs; assay: Toxicity to Tetranychus cinnabarinus eggs in different areas; format: in vivo; conditions: for LC50: Tetranychus cinnabarinus
Description: as §3
The procedure was the same as above except that the assay for toxicity to Tetranychus cinnabarinus eggs was carried out in different areas.

Bemisia tabaci egg = assay: Egg hatching inhibition, potting spray method; format: in vivo; conditions: read-out: Hatchability inhibition
Description: Bemisia tabaci egg: A potting spray method was adopted. A mother solution of the technical material with a mass concentration of 1 wt % was prepared with acetone for later use, and a series of trial concentrations were prepared using a 0.1 wt % aqueous solution of Tween 80. Potted pepper plants growing at the same pace were selected. Every 6 potted pepper plants were counted as a treatment unit and placed in an insect-raising cage. About 500 silverleaf whiteflies were inoculated into each insect-raising cage and normally kept for 2 days, and then the adults were removed. After the agent was prepared, it was used to spray the pepper plants. After the spraying, the plants were placed in the insect-raising cages. A 0.1 wt % aqueous solution of Tween 80 was used to set up a blank control, and the blank control was placed in an insect-raising chamber at 25° C. After […] nymphs of the blank control group hatched, the number of nymphs in each treatment unit was counted, and the hatching inhibition rate was calculated.

Bradysia odoriphaga egg = assay: Egg toxicity, agent liquid quantitative dropwise addition method; format: in vivo; conditions: 120 h, read-out: Hatchability inhibition
Description: Bradysia odoriphaga egg: The trial was carried out by using an agent liquid quantitative dropwise addition method. A mother solution of the technical material with a mass concentration of 1 wt % was prepared with acetone for later use, and a series of trial concentrations were prepared using a 0.1 wt % aqueous solution of Tween 80. Bradysia odoriphaga eggs aged 2 days were picked up. Each treatment unit comprised 20 eggs. The eggs were placed in a Petri dish with a diameter of 9 cm with filter paper spread in it. 600 μL of agent liquid was dropwise added with a pipette onto the eggs, and 600 μL of agent liquid onto the filter paper. Each treatment was repeated 3 times. A 0.1 wt % aqueous solution of Tween 80 was used to set up a blank control, and the blank control was placed in a biochemical incubator at 24±1° C. after treatment. Five days after application, the trial results were checked.

| SMILES | inhibition at 1 µg/mL [1] [%] | inhibition at 5 µg/mL [1] [%] | inhibition at 1 µg/mL [2] [%] | inhibition at 5 µg/mL [2] [%] | inhibition at 1 µg/mL [3] [%] | inhibition at 5 µg/mL [3] [%] | inhibition at 1 µg/mL [4] [%] | inhibition at 5 µg/mL [4] [%] | LC50 [5] [µg/mL] | LC90 [5] [µg/mL] | LC50 [6] [µg/mL] | LC90 [6] [µg/mL] | LC50 (Tetranychus urticae egg) [µg/mL] | LC90 (Tetranychus urticae egg) [µg/mL] | LC50 (Panonychus citri egg) [µg/mL] | LC90 (Panonychus citri egg) [µg/mL] | LC50 ([7]; area Fangcun, Taian) [µg/mL] | LC50 ([7]; area Jiyang, Jinan) [µg/mL] | LC50 ([7]; area Qihe, Dezhou) [µg/mL] | LC50 ([7]; area Shouguang, Weifang) [µg/mL] | further results |
| --- | --- | --- | --- | --- | --- | --- | --- | --- | --- | --- | --- | --- | --- | --- | --- | --- | --- | --- | --- | --- | --- |
| O=C(NC(=O)c1c(F)cccc1F)Nc1cc(Cl)c(OC(F)(F)C(F)C(F)(F)F)cc1Cl (stereo not shown) [Lufenuron] | – | – | – | – | – | – | – | – | – | – | – | – | – | – | – | – | – | – | – | – | inhibition at 5 µg/mL (Diamondback moth egg; Diamondback moth egg, trial concentration 5 mg/L): 59.1%; inhibition at 20 µg/mL (Diamondback moth egg; Diamondback moth egg, trial concentration 20 mg/L): 75%; inhibition at 5 µg/mL (Maize armyworm egg; Maize armyworm egg, trial concentration 5 mg/L): 22.6%; inhibition at 20 µg/mL (Maize armyworm egg; Maize armyworm egg, trial concentration 20 mg/L): 58.4% |
| CCOc1cc(C(C)(C)C)ccc1C1COC(c2c(F)cccc2F)=N1 (stereo not shown) [Etoxazole] | 35.7 | 66.8 | 35.9 | 69.2 | 27 | 60.8 | 37.6 | 65.4 | 18.5 (≈ 51.6 µM) | 124.23 (≈ 346 µM) | 17.6 (≈ 49 µM) | 88.51 (≈ 246 µM) | 17.8 (≈ 49.5 µM) | 135.01 (≈ 376 µM) | 21.6 (≈ 60 µM) | 123.59 (≈ 344 µM) | 15.4 (≈ 42.8 µM) | 5.37 (≈ 14.9 µM) | 26 (≈ 72.3 µM) | 7.21 (≈ 20.1 µM) | LC90 ([7]; area Fangcun, Taian): 168.95 µg/mL (≈ 470 µM); LC90 ([7]; area Jiyang, Jinan): 62.95 µg/mL (≈ 175 µM); LC90 ([7]; area Qihe, Dezhou): 162.82 µg/mL (≈ 453 µM); LC90 ([7]; area Shouguang, Weifang): 69.57 µg/mL (≈ 194 µM) |
| CC(COc1ccc(Oc2ccccc2)cc1)Oc1ccccn1 (stereo not shown) [Pyriproxyfen] | – | – | – | – | – | – | – | – | – | – | – | – | – | – | – | – | – | – | – | – | inhibition at 5 µg/mL (Bemisia tabaci egg; Bemisia tabaci egg, trial concentration 5 mg/L): 43.7%; inhibition at 20 µg/mL (Bemisia tabaci egg; Bemisia tabaci egg, trial concentration 20 mg/L): 86.8%; inhibition at 50 µg/mL (Bradysia odoriphaga egg; Bradysia odoriphaga egg, trial concentration 50 mg/L, five days after application): 42.4%; inhibition at 100 µg/mL (Bradysia odoriphaga egg; Bradysia odoriphaga egg, trial concentration 100 mg/L, five days after application): 61.6% |
| COc1ccccc1C1OC(=O)CC1C(=O)OCCC(F)=C(F)F (stereo not shown) [Trifluenfuronate, trifluenfuronate] | 47.3 | 77.7 | 50.4 | 77 | 48.7 | 75.3 | 51 | 77.8 | 4.12 (≈ 12 µM) | 20.77 (≈ 60.3 µM) | 3.66 (≈ 10.6 µM) | 12.44 (≈ 36.1 µM) | 3.69 (≈ 10.7 µM) | 18.01 (≈ 52.3 µM) | 3.28 (≈ 9.53 µM) | 17.97 (≈ 52.2 µM) | 3.89 (≈ 11.3 µM) | 3.92 (≈ 11.4 µM) | 3.79 (≈ 11 µM) | 4.11 (≈ 11.9 µM) | inhibition at 5 µg/mL (Diamondback moth egg): 73.6%; inhibition at 20 µg/mL (Diamondback moth egg): 88.3%; inhibition at 5 µg/mL (Bemisia tabaci egg; Bemisia tabaci): 83.3%; inhibition at 20 µg/mL (Bemisia tabaci egg; Bemisia tabaci): 98.7%; inhibition at 5 µg/mL (Maize armyworm egg): 83.7%; inhibition at 20 µg/mL (Maize armyworm egg): 92.3%; inhibition at 5 µg/mL (Bradysia odoriphaga egg; Bradysia odoriphaga): 81.3%; inhibition at 20 µg/mL (Bradysia odoriphaga egg; Bradysia odoriphaga): 95.3%; LC90 ([7]; area Fangcun, Taian): 21.95 µg/mL (≈ 63.8 µM); LC90 ([7]; area Jiyang, Jinan): 20.94 µg/mL (≈ 60.8 µM); LC90 ([7]; area Qihe, Dezhou): 15.62 µg/mL (≈ 45.4 µM); LC90 ([7]; area Shouguang, Weifang): 19.37 µg/mL (≈ 56.3 µM) |
